Assay results reported in patent US5648474A, “Crystalline etoposide 4'-phosphate diethanolate” (Bristol-Myers Squibb, priority 1991, dated 1997).
Several values for one entry are separate records, joined by “and”; a condition that tells them apart may be missing. Identical values can stand only once.

How the values were obtained:
[1] = Stability at 50° C., potency by HPLC (% EP remaining); assay type: physicochemical; conditions: for % EP remaining, 2 wk / % EP remaining, 4 wk / % EP remaining, 8 wk: sealed glass vials, control: desiccated at 4° C. (100% assumed potency); for % EP remaining, 2 wk: 20160 min; for % EP remaining, 4 wk: 40320 min; for % EP remaining, 8 wk: 80640 min
Experimental: a. Crystalline etoposide 4'-phosphate diethanolate prepared as described above. b. Crystalline etoposide 4'-phosphate (unsolvated) was prepared by the following procedure. Etoposide 4'-phosphate (300 mg) in ethanol (175 ml) was heated with stirring at 70° C. to obtain a clear solution. The solution was filtered and the filtrate heated at 70° C. until the volume was reduced to ca. 34 ml. A portion of the solution (ca. 17 ml) was placed in a vial, and seeded with a small amount of needle-shaped etoposide 4'-phosphate crystals previously obtained. The solution was placed in freezer at -12° C. for 4 days and the resulting needle-shaped crystals were harvested as white fluffy material. NMR analysis of this material indicated ethanol content of ca. 1.6% w/w. […]
c. amorphous disodium etoposide 4'-phosphate prepared as described in U.S. Pat. No. 4,904,768. d. amorphous etoposide 4'-phosphate was obtained by dissolving crystalline etoposide 4'-phosphate diethanolate (125 mg) in methanol (50 ml), evaporating the solution to dryness on a rotary evaporator, and drying the residue at 25° C. under vacuum for 1 hour.
Accurately weighed samples of the test materials were placed in Type I flint glass vials and sealed with Teflon-coated stoppers and aluminum caps. The vials were stored at 50° C. The potency of these samples was determined at 2,4 and 8 weeks by HPLC. Samples stored desiccated at 4° C. served as controls (100% assumed potency).
Column: Jones Apex Octadecyl, 5μ, 150×4.6 mm
Mobile phase A: 0.02M ammonium phosphate (mono-basic) in Milli-Q water (pH ~4.5): Acetonitrile (85:15) Mobile phase B: Acetonitrile
Gradient: 0-3 minutes isocratic at 0% B; 3-18 mins--linear gradient 0 to 30% B; 18-23 mins--isocratic at 30% B; 23-25 mins--linear gradient 30 to 0% B; 25-30 mins--re-equilibrate at 100% A (i.e. 0% B) […]
Sample diluent: Mobile phase A
Inj. volume: 20 microliters
Retention times: Etoposide 4'-phosphate--5.4 mins; lignan P--11.5 mins; etoposide--17.5 mins Peak area for etoposide 4'-phosphate was linearly correlated with concentration in the range 0.05-0.20 mg/mL (correlation coefficient=0.9999).
The results of the above-described stability test are given in the following Table in which the term "EP" represents etoposide 4'-phosphate.

[2] = cited from earlier work
[3] = relative to etoposide; cited from earlier work
[4] = previously disclosed fluffy, amorphous forms; cited from earlier work

SMILES	% EP remaining, 2 wk [1]	% EP remaining, 4 wk [1]	% EP remaining, 8 wk [1]	water solubility [2]	stability versus other forms of etoposide 4'-phosphate [1]	loss of potency over a 8-week period ([1]; 8-week period)	activity in in vivo antitumor assays [3]	decomposition upon storage [4]
COc1cc([C@@H]2c3cc4c(cc3[C@@H](O[C@@H]3O[C@@H]5CO[C@@H](C)O[C@H]5[C@H](O)[C@H]3O)[C@H]3COC(=O)[C@H]23)OCO4)cc(OC)c1OP(=O)(O)O [Amorphous EP, etoposide 4'-phosphate]	65.8%	54.1%	46.7%					
COc1cc([C@@H]2c3cc4c(cc3[C@@H](O[C@@H]3O[C@@H]5CO[C@@H](C)O[C@H]5[C@H](O)[C@H]3O)[C@H]3COC(=O)[C@H]23)OCO4)cc(OC)c1O [Etoposide]				about 0.1 mg/ml				
COc1cc([C@@H]2c3cc4c(cc3[C@@H](O[C@@H]3O[C@@H]5CO[C@@H](C)O[C@H]5[C@H](O)[C@H]3O)[C@H]3COC(=O)[C@H]23)OCO4)cc(OC)c1OP(=O)(O)O [Amorphous EP 2Na, disodium etoposide 4'-phosphate]	85.5%	69.3%	61.6%	≥ 100 mg/mL				
COc1cc([C@@H]2c3cc4c(cc3[C@@H](O[C@@H]3O[C@@H]5CO[C@@H](C)O[C@H]5[C@H](O)[C@H]3O)[C@H]3COC(=O)[C@H]23)OCO4)cc(OC)c1OP(=O)(O)O [Crystalline EP 2EtOH, etoposide 4'-phosphate diethanolate]	100%	98.4% and 100%	97.5% and 99.3%		superior stability	very little loss of potency		
COc1cc([C@@H]2c3cc4c(cc3[C@@H](O[C@@H]3O[C@@H]5CO[C@@H](C)O[C@H]5[C@H](O)[C@H]3O)[C@H]3COC(=O)[C@H]23)OCO4)cc(OC)c1OP(=O)(O)O [Etoposide 4'-phosphate (I), Etoposide 4'-phosphate]				≥ 100 mg/mL			as active as etoposide	tend to decompose upon storage
COc1cc([C@@H]2c3cc4c(cc3[C@@H](O[C@@H]3O[C@@H]5CO[C@@H](C)O[C@H]5[C@H](O)[C@H]3O)[C@H]3COC(=O)[C@H]23)OCO4)cc(OC)c1OP(=O)(O)O [Crystalline EP, etoposide 4'-phosphate]	93.3%	87.9%	85.1%					
